According to PubChem BioAssay AID1963836 (Molecular Pharmacology Branch, DTP, NCI, 2024):
Values joined by “and” are separate entries in the source; they are usually repeats but may differ in a detail not shown here. Identical values can stand only once.

Tested on: 857933-349-R-J2-PDC complex spheroid viability
Test: Anticancer human tumor 857933-349-R-J2-PDC patient-derived colon adenocarcinoma cell line growth inhibition [POLQ]
Conditions: for viability, T/C: stronger effect = lower value
Protocol: Multicellular complex tumor spheroid response to Polymerase (POL) inhibitors (novobiocin, ART-558, RP6685) in combination with a variety of drugs and investigational agents in selected tumor cell lines
The POL inhibitors (novobiocin, ART-558, and RP6685) were evaluated both individually and in combination with standard of care and investigational anticancer small molecules within a complex spheroid model of solid tumors. . Complex spheroids include a stromal component modeled by human endothelial cells (HUVEC) and fibroblasts modeled by human mesenchymal stem cells (MSCs). The concentration ranges selected for each drug and investigational agent were based upon clinically achievable concentrations if the clinical Cmax of the agent was known.
Compounds. The drugs and investigational agents: novobiocin (NSC847541), ART-558 (NSC835418), RP-6685 (NSC848927), peposertib (NSC802822), ceralasertib (NSC780249), elimusertib (NSC800525), camonsertib (NSC841442), AZD-1390 (NSC803789), olaparib (NSC753686), talazoparib (NSC767125), rucaparib (NSC756644), sotorasib (NSC818433), MRTX-1133 (NSC836407), SN-38 (NSC673596), topotecan (NSC609699), epotoside (NSC141540), doxorubicin (NSC123127), gemcitabine (NSC613327), 5-fluorouracil (NSC19893), paclitaxel (NSC125973), vemurafenib (NSC761431), MSA-2 (NSC828583), SN-011 (NSC837082), adavosertib (NSC754352), prexasertib (NSC758257), carboplatin (NSC241240) and oxaliplatin (NSC266046), were obtained from the National Cancer Institute (NCI) Developmental Therapeutics Program Chemical Repository (21). The FDA-approved anticancer drug set is available from the Developmental Therapeutics Program at https://dtp.cancer.gov/organization/dscb/obtaining/. […] The stock solutions were prepared in dimethyl sulfoxide (DMSO, Sigma-Aldrich, St. Louis, MO, cat. D2650), except for the platinum compounds which were prepared in saline (Quality Biological, Gaithersburg, MD, cat. 114-055-101), at 800-fold the tested concentration and stored at -70 degrees C prior to their use. All drugs and investigational agents were tested over a range starting from a high concentration at or near the clinical Cmax and decreasing in half-log increments. If the clinical Cmax for an agent had not been determined, the highest concentration tested was 10 microM, except for SN-38, which was tested at a high concentration of 1 microM.
Cell Culture. All cells were maintained in an incubator at 37 degrees C and 5% CO2 with 95% humidity. The PDC lines were cultured according to standard operating procedures established by the NCI PDMR (https://pdmr.cancer.gov). Table 3 of the manuscript, lists the cell lines along with the number of the three cell types plated to form the mct-spheroids and media for tumor cell growth. After thawing, all PDC lines, except 997537-175-T-J1-PDC and 415267-285-R-J2-PDC, were cultured in Matrigel-coated flasks prepared with a working solution of 1X Ham's F-12 nutrient mix, without supplementation (Thermo Fisher Scientific, cat. 11765054), 100 U/mL penicillin-streptomycin (Thermo Fisher Scientific, cat. 15140122), and 2.5% Matrigel (Corning Inc., Corning, NY, cat. 354248) for the first three passages. The two PDC lines 997537-175-T-J1-PDC and 415267-285-R-J2-PDC were cultured on uncoated flasks. The 857933-349-R-J2-PDC line was cultured in 6C/Colon 1B media containing advanced DMEM/F-12 (Thermo Fisher Scientific, cat. 12634028), 10 mM HEPES (Thermo Fisher Scientific, cat. 15630080), 1X GlutaMAX supplement (Thermo Fisher Scientific, cat. 35050061), 0.1 mg/mL primocin (InvivoGen, San Diego, CA, cat. ant-pm-2), 10% defined fetal bovine serum, heat inactivated (HyClone Laboratories Inc., Logan, UT, cat. SH30070.03HI), 50% L-WRN conditioned media (ATCC, cat. CRL-3276), 1.25 mM N-Acetyl-L-cysteine (Sigma-Aldrich, cat. A9165), 10 mM nicotinamide (Sigma-Aldrich, cat. N0636), 1X B-27 supplement (Thermo Fisher Scientific, cat. 17504044), 1X N-2 supplement (Thermo Fisher Scientific, cat. […]

[1] = curve of first compound, second compound 0.0316 µM
[2] = curve of first compound, second compound 0.1 µM
[3] = curve of first compound, second compound 0.316 µM
[4] = curve of first compound, second compound 1 µM
[5] = curve of first compound, second compound 3.16 µM
[6] = curve of first compound, second compound 10 µM
[7] = second compound 0.0316 µM, first compound 0.0316 µM
[8] = second compound 0.0316 µM, first compound 0.1 µM
[9] = second compound 0.0316 µM, first compound 0.316 µM
[10] = second compound 0.0316 µM, first compound 1 µM
[11] = second compound 0.0316 µM, first compound 3.16 µM
[12] = second compound 0.0316 µM, first compound 10 µM
[13] = second compound 0.1 µM, first compound 0.0316 µM
[14] = second compound 0.1 µM, first compound 0.1 µM
[15] = second compound 0.1 µM, first compound 0.316 µM
[16] = second compound 0.1 µM, first compound 1 µM
[17] = second compound 0.1 µM, first compound 3.16 µM
[18] = second compound 0.1 µM, first compound 10 µM
[19] = second compound 0.316 µM, first compound 0.0316 µM
[20] = second compound 0.316 µM, first compound 0.1 µM
[21] = second compound 0.316 µM, first compound 0.316 µM
[22] = second compound 0.316 µM, first compound 1 µM
[23] = second compound 0.316 µM, first compound 3.16 µM
[24] = second compound 0.316 µM, first compound 10 µM
[25] = second compound 1 µM, first compound 0.0316 µM
[26] = second compound 1 µM, first compound 0.1 µM
[27] = second compound 1 µM, first compound 0.316 µM
[28] = second compound 1 µM, first compound 1 µM
[29] = second compound 1 µM, first compound 3.16 µM
[30] = second compound 1 µM, first compound 10 µM
[31] = second compound 3.16 µM, first compound 0.0316 µM
[32] = second compound 3.16 µM, first compound 0.1 µM
[33] = second compound 3.16 µM, first compound 0.316 µM
[34] = second compound 3.16 µM, first compound 1 µM
[35] = second compound 3.16 µM, first compound 3.16 µM
[36] = second compound 3.16 µM, first compound 10 µM
[37] = second compound 10 µM, first compound 0.0316 µM
[38] = second compound 10 µM, first compound 0.1 µM
[39] = second compound 10 µM, first compound 0.316 µM
[40] = second compound 10 µM, first compound 1 µM
[41] = second compound 10 µM, first compound 3.16 µM
[42] = second compound 10 µM, first compound 10 µM
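Further: spheroids exposed to compounds for seven days before readout.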

CCc1cc2c(N3CCc4c(cc(Cn5ccnc5)cc4-c4cn(C)nc4C(F)(F)F)C3=O)ccnc2c(OC)n1 + Nc1ccc(C#CCN(C(=O)Cc2ncc(C(F)(F)F)cc2C(F)(F)F)c2ccc(F)cc2)nn1
IC50 [1]: > 10000 nM
IC50 [2]: > 10000 nM
IC50 [3]: > 10000 nM
IC50 [4]: > 10000 nM
IC50 [5]: > 10000 nM
IC50 [6]: 6060 nM
viability, T/C [7]: 93.9%
viability, T/C [8]: 96.4%
viability, T/C [9]: 76.3%
viability, T/C [10]: 87.7%
viability, T/C [11]: 59.2%
viability, T/C [12]: 59.2%
viability, T/C [13]: 97.3%
viability, T/C [14]: 101%
viability, T/C [15]: 94.5%
viability, T/C [16]: 93%
viability, T/C [17]: 70%
viability, T/C [18]: 58.5%
viability, T/C [19]: 82%
viability, T/C [20]: 86%
viability, T/C [21]: 94.5%
viability, T/C [22]: 84.1%
viability, T/C [23]: 77%
viability, T/C [24]: 55.1%
viability, T/C [25]: 97.6%
viability, T/C [26]: 90.2%
viability, T/C [27]: 95.1%
viability, T/C [28]: 77.2%
viability, T/C [29]: 71.1%
viability, T/C [30]: 65.3%
viability, T/C [31]: 97.6%
viability, T/C [32]: 89.9%
viability, T/C [33]: 104%
viability, T/C [34]: 83%
viability, T/C [35]: 68.3%
viability, T/C [36]: 62.8%
viability, T/C [37]: 83.5%
viability, T/C [38]: 77.3%
viability, T/C [39]: 79.6%
viability, T/C [40]: 75.7%
viability, T/C [41]: 54.4%
viability, T/C [42]: 46.6%

O=c1[nH]cc(F)c(=O)[nH]1 + Nc1ccc(C#CCN(C(=O)Cc2ncc(C(F)(F)F)cc2C(F)(F)F)c2ccc(F)cc2)nn1
IC50 [1]: 2150 nM
IC50 [2]: 2130 nM
IC50 [3]: 2450 nM
IC50 [4]: 2280 nM
IC50 [5]: 2330 nM
IC50 [6]: 2170 nM
viability, T/C [7]: 101%
viability, T/C [8]: 98.7%
viability, T/C [9]: 100%
viability, T/C [10]: 83.4%
viability, T/C [11]: 33.1%
viability, T/C [12]: 25.1%
viability, T/C [13]: 102%
viability, T/C [14]: 93.5%
viability, T/C [15]: 93.3%
viability, T/C [16]: 75.2%
viability, T/C [17]: 36.5%
viability, T/C [18]: 22.7%
viability, T/C [19]: 106%
viability, T/C [20]: 120%
viability, T/C [21]: 97.2%
viability, T/C [22]: 84.4%
viability, T/C [23]: 39.2%
viability, T/C [24]: 23.3%
viability, T/C [25]: 106%
viability, T/C [26]: 103%
viability, T/C [27]: 97.5%
viability, T/C [28]: 81.6%
viability, T/C [29]: 37.2%
viability, T/C [30]: 22.4%
viability, T/C [31]: 105%
viability, T/C [32]: 106%
viability, T/C [33]: 91%
viability, T/C [34]: 83.3%
viability, T/C [35]: 37.2%
viability, T/C [36]: 21.5%
viability, T/C [37]: 95.7%
viability, T/C [38]: 87.1%
viability, T/C [39]: 92.7%
viability, T/C [40]: 87.5%
viability, T/C [41]: 31.8%
viability, T/C [42]: 27.8%

CCc1cc2c(N3CCc4c(cc(Cn5ccnc5)cc4-c4cn(C)nc4C(F)(F)F)C3=O)ccnc2c(OC)n1
viability, T/C (compound 0.0316 µM): 78.8% and 89.8% and 94.1%
viability, T/C (compound 0.1 µM): 83.8% and 87.8% and 80.9%
viability, T/C (compound 0.316 µM): 73.6% and 90% and 98.3%
viability, T/C (compound 1 µM): 73.4% and 84.9% and 82.2%
viability, T/C (compound 3.16 µM): 62.2% and 72.7% and 78%
viability, T/C (compound 10 µM): 58.9% and 65.9% and 59%
IC50 (curve of compound): > 10000 nM
